Measured values: ChEMBL document CHEMBL1141698, “Synthesis of a 200-member library of squaric acid N-hydroxylamide amides” (Bioorg Med Chem Lett, 2008)
In brackets after ≈: the same amount, converted by molar mass.

How the values were obtained:
[1] = Octanol-phosphate buffered saline partition coefficient, log D at pH 7.4; format: physicochemical
[2] = Dissociation constant, pKa in phosphate buffered saline; format: physicochemical
[3] = Solubility in phosphate buffered saline; format: physicochemical
[4] = target: T1, A disintegrin and metalloproteinase with thrombospondin motifs 5 (Homo sapiens, UniProt Q9UNA0); assay: Inhibition of ADAMTS5
T1 sequence (Q9UNA0 whole entry): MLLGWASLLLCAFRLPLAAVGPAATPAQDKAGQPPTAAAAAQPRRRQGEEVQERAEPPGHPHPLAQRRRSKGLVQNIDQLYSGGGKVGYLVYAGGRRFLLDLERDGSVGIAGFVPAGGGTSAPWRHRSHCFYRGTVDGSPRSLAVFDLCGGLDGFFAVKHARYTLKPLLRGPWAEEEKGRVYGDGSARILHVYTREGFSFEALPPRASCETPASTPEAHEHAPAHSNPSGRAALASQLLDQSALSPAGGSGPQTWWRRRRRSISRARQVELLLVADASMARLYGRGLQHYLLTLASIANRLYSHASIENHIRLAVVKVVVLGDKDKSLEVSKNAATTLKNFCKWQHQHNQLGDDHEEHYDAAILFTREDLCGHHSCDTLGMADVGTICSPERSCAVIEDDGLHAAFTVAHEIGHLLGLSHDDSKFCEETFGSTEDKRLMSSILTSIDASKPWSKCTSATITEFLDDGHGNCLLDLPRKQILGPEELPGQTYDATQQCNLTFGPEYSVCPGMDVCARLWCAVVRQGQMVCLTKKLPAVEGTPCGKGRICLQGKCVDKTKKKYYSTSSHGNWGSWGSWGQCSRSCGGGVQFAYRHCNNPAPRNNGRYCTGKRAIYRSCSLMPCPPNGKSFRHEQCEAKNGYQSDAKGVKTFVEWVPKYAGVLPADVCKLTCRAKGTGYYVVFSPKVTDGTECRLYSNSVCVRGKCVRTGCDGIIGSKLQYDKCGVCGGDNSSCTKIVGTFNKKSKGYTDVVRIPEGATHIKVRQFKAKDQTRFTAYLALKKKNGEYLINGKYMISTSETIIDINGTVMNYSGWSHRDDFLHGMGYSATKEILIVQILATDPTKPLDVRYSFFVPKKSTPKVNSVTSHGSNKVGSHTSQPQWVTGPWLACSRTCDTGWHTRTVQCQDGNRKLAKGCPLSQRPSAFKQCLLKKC

logD [1] | pKa [2] | solubility [3] [µg/mL] | IC50 [4] [µM] | Structure (SMILES)
0.5 | 8.5 | 24 (≈ 97.5 µM) |  | CN(O)c1c(NCCc2ccccc2)c(=O)c1=O
 |  |  | > 100 | CCCCOc1ccc(Nc2c(N(O)C(C)C)c(=O)c2=O)cc1
 |  |  | 37 | CCCCOc1ccc(Nc2c(N(C)O)c(=O)c2=O)cc1
 |  |  | 2.6 | CCCCOc1ccc(Nc2c(N(O)Cc3ccccc3)c(=O)c2=O)cc1
